Earlier results, collected in patent US20130303628A1, “CURCUMINOID SOLID DISPERSION FORMULATION” (ABBOTT LABORATORIES, priority 2010, published 2013).

Settings: acidic and neutral pH

In the case of `COc1cc(C=CC(=O)CC(=O)C=Cc2ccc(O)c(OC)c2)ccc1O` [Curcumin, 1,7-Bis-(4-hydroxy-3-methoxyphenyl)-hepta-1,6-diene-3,5-dione], the solubility in water is listed as “practically insoluble”.
